Source: patent US20010049373A1, “Materials and methods for killing nematodes and nematode eggs” (priority 2000, published 2001)

Experiments:
[1] = test system: C. elegans; assay: C. elegans nematode activity assay, 2-fold dilutions from 140 μM, visual evaluation at Day 4 (Example 3); type: in vivo; set-up: key: Dead: only stiff L1s (no movement); Dead (L4): worms are dead, but at a later larval stage; majority of worms are L1 (based on size); majority of worms are L2 (based on size); majority of worms are L3 (based on size); majority of worms are L4 (based on size); AD: majority of worms are adult; #AD: 5 adult worms or less; B!: sterile (0-25 progeny); B: low broodsize (25-100 progeny); ˜B: moderate broodsize (100-250 progeny); <: reduced broodsize (250-500 progeny); OK: no effect (˜1000+ progeny)
[2] = test system: tomatoes or cucumbers; settings: rates of up to 10 kg/ha; cited from earlier work
[3] = test system: root-knot nematode, Meloidogyne incognita; settings: cited from earlier work
[4] = test system: Colorado potato beetle, potato tuberworm, beet armyworm, diamondback moth, gypsy moth, and the European corn borer; settings: cited from earlier work

O=C(NCC1CCN(C(=O)NCCC(c2ccccc2)c2ccccc2)CC1)c1cc(F)c(F)cc1F [AKC 116]
visual evaluation of viability ([1]; 1.09 μM): OK (no effect (˜1000+ progeny)) | visual evaluation of viability ([1]; 2.2 μM): OK (no effect (˜1000+ progeny)) | visual evaluation of viability ([1]; 4.4 μM): OK (no effect (˜1000+ progeny)) | visual evaluation of viability ([1]; 8.8 μM): B (low broodsize (25-100 progeny)) | visual evaluation of viability ([1]; 17.5 μM): B! (sterile (0-25 progeny)) | visual evaluation of viability ([1]; 35 μM): L3

O=C(NCC1CCN(C(=O)NCCC(c2ccccc2)c2ccccc2)CC1)c1ccc(F)cc1F [AKC 117]
visual evaluation of viability ([1]; 1.09 μM): OK (no effect (˜1000+ progeny)) | visual evaluation of viability ([1]; 2.2 μM): OK (no effect (˜1000+ progeny)) | visual evaluation of viability ([1]; 4.4 μM): < (reduced broodsize (250-500 progeny)) | visual evaluation of viability ([1]; 8.8 μM): B (low broodsize (25-100 progeny)) | visual evaluation of viability ([1]; 17.5 μM): B! (sterile (0-25 progeny)) | visual evaluation of viability ([1]; 35 μM): L3

O=C(NCC1CCN(C(=O)NCCC(c2ccccc2)c2ccccc2)CC1)c1cc(F)cc(F)c1 [AKC 118]
visual evaluation of viability ([1]; 1.09 μM): OK (no effect (˜1000+ progeny)) | visual evaluation of viability ([1]; 2.2 μM): OK (no effect (˜1000+ progeny)) | visual evaluation of viability ([1]; 4.4 μM): ˜B (moderate broodsize (100-250 progeny)) | visual evaluation of viability ([1]; 8.8 μM): B (low broodsize (25-100 progeny)) | visual evaluation of viability ([1]; 17.5 μM): L4/AD/B! | visual evaluation of viability ([1]; 35 μM): L3 | visual evaluation of viability ([1]; 140 μM): L2

NCc1ccc(-c2ccccc2)cc1 [AKC 138]
visual evaluation of viability ([1]; 1.09 μM): OK (no effect (˜1000+ progeny)) | visual evaluation of viability ([1]; 2.2 μM): OK (no effect (˜1000+ progeny)) | visual evaluation of viability ([1]; 4.4 μM): OK (no effect (˜1000+ progeny)) | visual evaluation of viability ([1]; 8.8 μM): ˜B (moderate broodsize (100-250 progeny)) | visual evaluation of viability ([1]; 17.5 μM): L2 | visual evaluation of viability ([1]; 35 μM): L1 | visual evaluation of viability ([1]; 70 μM): L1 | visual evaluation of viability ([1]; 140 μM): L1

Cc1ccc2c(Cl)cc(Cl)c(O)c2n1 [AKC 141]
visual evaluation of viability ([1]; 1.09 μM): OK (no effect (˜1000+ progeny)) | visual evaluation of viability ([1]; 2.2 μM): OK (no effect (˜1000+ progeny)) | visual evaluation of viability ([1]; 4.4 μM): OK (no effect (˜1000+ progeny)) | visual evaluation of viability ([1]; 8.8 μM): OK (no effect (˜1000+ progeny)) | visual evaluation of viability ([1]; 17.5 μM): < (reduced broodsize (250-500 progeny)) | visual evaluation of viability ([1]; 35 μM): L1 | visual evaluation of viability ([1]; 70 μM): L1 | visual evaluation of viability ([1]; 140 μM): L1

CC[C@H](C)[C@H]1O[C@]2(CC(O)[C@@H]1C)C[C@@H]1C[C@@H](C/C=C(\C)[C@@H](OC3CC(OC)C(OC4CC(OC)C(O)C(C)O4)C(C)O3)[C@@H](C)/C=C/C=C3\CO[C@@H]4[C@H](O)C(C)=C[C@@H](C(=O)O1)[C@]34O)O2 (stereo partly drawn) [Avermectin B2a]
toxicity to tomatoes or cucumbers [2]: not toxic | activity against the root-knot nematode ([3]; Meloidogyne incognita): active | potency relative to commercial contact nematicides ([3]; incorporated into soil at 0.16-0.25 kg/ha): 10-30 times

Avermectin B1
effect on insect pests [4]: effective
